PMC10850501 (Nature Communications, 2024)
“Also recorded” adds a separate entry of the source. Read-outs that look alike come from different tables or passages of the source. Peptide text beside a SMILES is read from it.

What was measured:
Cytocompatibility (CCK8) = format: cell-based, human; conditions: human, A549 cells, read-out: cytocompatibility, normalized to serum free media; for viability at 6 h, 10 µM: 0.01 mM peptide; for viability at 6 h, 100 µM: 0.1 mM peptide; for viability at 6 h, 1000 µM: 1 mM peptide
Experimental: (§1) Cytocompatibility of the peptides was evaluated at 1, 0.1, and 0.01 mM with A549 cells (ATCC CCL-185) cultured in complete media consisting of 90% F-12K and 10% FBS. The A549 cells were utilized after their first passage and seeded at 10,000 cells/well in a 96-well plate for 24 hours. The conditions were prepared in serum-free A549 media and introduced into the wells for 6 hours, after which the condition media were aspirated, the wells were washed once with PBS, and 10 µL of CCK8 was added to 100 µL of PBS[32]. The plate was incubated for 1 hour and read on a Tecan M200 Infinite plate reader at an absorbance of 450 nm with a reference wavelength of 650 nm. The results were analyzed and normalized to the serum-free media control[28],[32],[76].

A549 cells = experiment: Cytocompatibility (CCK8); format: cell-based, human; conditions: human alveolar epithelial A549 cells; 0.01-1 mM
Experimental: as §1

[1] = Subcutaneous bolus biocompatibility; format: in vivo, rat (female Wistar)
Experimental: The peptide hydrogel was prepared at 10 mg/mL in sterile saline and aspirated in sterile 1 mL syringes, with careful attention to avoid air bubbles. Female Wistar rats (225–250 g, 8–12 weeks old) were used for dorsal subcutaneous implantation. The rats were anesthetized using 2.5% isoflurane and […], after which the back of the rat’s hair was shaved and sterilized with 3 alternating applications of isopropanol and betadine. 200 µL boluses of the peptide hydrogel were injected with a 25 G needle at n = 4 for a time point of 7 days. After the time point, the animals were sacrificed, and the implant regions were collected and fixed overnight in 10% buffered formalin. The Rutgers Cancer Institute of New Jersey histology core processed the paraffin-embedded samples for histological evaluation after staining with hematoxylin and eosin and Masson’s Trichrome. Samples were also fixed in glutaraldehyde and formaldehyde, processed to eponate blocks, and sectioned with an ultramicrotome for electron microscopy imaging (above)[30],[76],[87].
Female Wistar rats (225–250 g, 8–12 weeks old) were observed and acclimatized for 2 weeks prior to running the studies. They were housed in a controlled environment with temperature at […] and 40–70% humidity. They were kept in an alternating 12-hour light/dark cycle, and food, and water was provided as pellets ad libitum. Female Wistar Rats were used for the pharmacokinetics and the drug clearance analysis from the blood. The two hydrogels (ESBP2 and ESBP3) at 10 mg/ml concentration were injected into the rats via the lateral tail vein. For subcutaneous implants, the substance was injected between the shoulder blades and above the lumbar vertebrae, 200 μL each, using a 25-gauge needle. The hydrogel bolus was prepared with 0.9% saline and was injected within 1–2 minutes. The volume injected was approximately 1% of the total body weight of the rat, which was calculated prior to the dosing. The initial blood draw was performed for baseline, and the subsequent blood collection was performed from the lateral vein using 25 g butterfly needles.

CC[C@H](C)[C@H](NC(=O)[C@H](Cc1ccc(O)cc1)NC(=O)[C@@H](NC(=O)[C@H](CCCCN)NC(=O)[C@H](Cc1ccc(O)cc1)NC(=O)[C@H](CCC(N)=O)NC(=O)CNC(=O)[C@H](CCC(=O)O)NC(=O)[C@H](CC(C)C)NC(=O)[C@H](CO)NC(=O)[C@H](CC(C)C)NC(=O)[C@H](CO)NC(=O)[C@H](CC(C)C)NC(=O)[C@H](CO)NC(=O)[C@H](CC(C)C)NC(=O)[C@H](CO)NC(=O)[C@H](CC(C)C)NC(=O)[C@H](CO)NC(=O)[C@H](CC(C)C)NC(=O)[C@H](CO)NC(=O)[C@H](CCC(=O)O)NC(C)=O)[C@@H](C)O)C(=O)N[C@@H](CC(=O)O)C(=O)N[C@@H](CCCCN)C(=O)N[C@@H](CC(N)=O)C(=O)N[C@@H](CC(N)=O)C(=O)N[C@@H](Cc1c[nH]cn1)C(=O)N[C@@H](Cc1ccc(O)cc1)C(=O)N[C@@H](C)C(=O)N[C@@H](CCC(=O)O)C(=O)N[C@@H](CC(=O)O)C(=O)N[C@@H](CCC(=O)O)C(=O)N[C@@H](CCCNC(=N)N)C(=O)N[C@@H](Cc1ccc(O)cc1)C(=O)N[C@@H](CCCCN)C(N)=O [ESBP3] (Ac-ESLSLSLSLSLSLEGQYKTYIDKNNHYAEDERYK-NH2)
viability at 6 h, 10 µM (Cytocompatibility (CCK8); replicate 1, CCK8, 6 h): 91.9% | viability at 6 h, 10 µM (Cytocompatibility (CCK8); replicate 2, CCK8, 6 h): 85.4% | viability at 6 h, 100 µM (Cytocompatibility (CCK8); replicate 1, CCK8, 6 h): 87.2% | viability at 6 h, 100 µM (Cytocompatibility (CCK8); replicate 2, CCK8, 6 h): 97.6% | viability at 6 h, 100 µM (Cytocompatibility (CCK8); replicate 3, CCK8, 6 h): 85.4% | viability at 6 h, 1000 µM (Cytocompatibility (CCK8); replicate 1, CCK8, 6 h exposure, absorbance 450 nm): 106% | viability at 6 h, 1000 µM (Cytocompatibility (CCK8); replicate 2, CCK8, 6 h): 125% | viability at 6 h, 1000 µM (Cytocompatibility (CCK8); replicate 3, CCK8, 6 h): 119% | cytocompatibility, in words (A549 cells): excellent cytocompatibility | peptide in plasma after subcutaneous bolus ([1]; 200 µL, 10 mg/mL, once, daily blood draws for 10 days): no detectable ESBP3 | subcutaneous bolus tolerability, in words ([1]; 200 µL, 10 mg/mL, once, rats, daily blood draws for 10 days): no significant body weight changes or adverse organ morphology; also recorded: no weight loss or adverse event | histology of Sub-Q implanted boluses (H&E, Masson's Trichrome) ([1]; 7 days): infiltration of boluses with neutrophils/ macrophages
